Measurements reported in patent US20260317320A1, “C5AR1 ANTAGONISTS AND USES THEREOF” (Vanqua Bio, Inc., priority 2022, published 2026).
Read-outs that look alike come from different tables or passages of the source.

Tests used:
[1] = target: T1, complement C5a receptor 1 (C5aR1) (Homo sapiens, UniProt P21730); test: β-arrestin recruitment via C5aR1 activation in live CHO-K1 cells (PathHunter), antagonist mode; format: cell-based; conditions: antagonist mode; recombinant hC5a (EC90) as competing natural agonist; live CHO-K1 cells; read-out: [Antagonist] B-arrestin2 recruitment: Average IC50
T1 construct: β-galactosidase fragment (PathHunter enzyme complementation); host or cells: CHO-K1 (PathHunter CHO-K1 C5aR1 β-arrestin cell line)
T1 sequence (P21730 1-350): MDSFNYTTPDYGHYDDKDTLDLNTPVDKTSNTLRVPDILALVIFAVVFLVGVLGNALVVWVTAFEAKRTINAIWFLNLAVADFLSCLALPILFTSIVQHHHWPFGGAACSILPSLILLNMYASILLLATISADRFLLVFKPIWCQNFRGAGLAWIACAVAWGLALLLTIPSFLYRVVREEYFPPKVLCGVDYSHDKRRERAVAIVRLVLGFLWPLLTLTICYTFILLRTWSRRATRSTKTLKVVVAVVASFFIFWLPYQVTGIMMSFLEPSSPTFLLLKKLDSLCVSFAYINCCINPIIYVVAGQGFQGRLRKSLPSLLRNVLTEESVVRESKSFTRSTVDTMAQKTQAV
Method in brief: (§1)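 β-arrestin recruitment to C5aR1 in CHO-K1 cells is detected by enzyme-fragment complementation. Antagonism is measured against recombinant hC5a at its EC90; agonism is measured with compound alone. Potencies are grouped into IC50 categories.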

[2] = target: T1, complement C5a receptor 1 (C5aR1); test: β-arrestin recruitment via C5aR1 activation in live CHO-K1 cells (PathHunter), agonist mode; format: cell-based
Method in brief: as §1

IC50 [1] [µM] | [Agonist] B-arrestin2 recruitment: Average EC50 (nM) ([2]; at 10 μM) | [Agonist] B-arrestin2 recruitment: Average EC50 (nM) [2] | SMILES
< 0.5 | Non-Active at 10 μM |  | Cc1cnc2cc(C3CCN(c4c(C)cccc4F)CC3)c(=O)n(Cc3nccnc3OC(F)F)c2n1 [compound 167, 5-((3-(Difluoromethoxy)pyrazin-2-yl)methyl)-7-(1-(2-fluoro-6-methylphenyl)piperidin-4-yl)-3-methylpyrido[2,3-b]pyrazin-6(5H)-one]
< 0.5 |  | Non-Active | Cc1ccnc(F)c1N1CCC(c2cc3nccnc3n(Cc3ncccc3C(F)(F)F)c2=O)CC1 [compound 127, 7-(1-(2-Fluoro-4-methylpyridin-3-yl)piperidin-4-yl)-5-((3-(trifluoromethyl)pyridin-2-yl)methyl)pyrido[2,3-b]pyrazin-6(5H)-one]
0.5 to 5 |  | Non-Active | CCOc1ncc2cc(C3CCN(c4c(C)cccc4F)CC3)c(=O)n(Cc3nccnc3C(F)(F)F)c2n1 [compound 51, 2-Ethoxy-6-(1-(2-fluoro-6-methylphenyl)piperidin-4-yl)-8-((3-(trifluoromethyl)pyrazin-2-yl)methyl)pyrido[2,3-d]pyrimidin-7(8H)-one]
< 0.5 |  | Non-Active | Cc1cnc2cc(C3CCN(c4c(C)cccc4F)CC3)c(=O)n(Cc3ncccc3OC(F)F)c2n1 [compound 66, 5-((3-(Difluoromethoxy)pyridin-2-yl)methyl)-7-(1-(2-fluoro-6-methylphenyl)piperidin-4-yl)-3-methylpyrido[2,3-b]pyrazin-6(5H)-one]
< 0.5 |  | Non-Active | COc1cccnc1Cn1c(=O)c([C@H]2CC[C@H](c3c(C)cccc3F)CC2)cc2ncc(C)nc21 [compound 199, 7-((1r,4r)-4-(2-Fluoro-6-methylphenyl)cyclohexyl)-5-((3-methoxypyridin-2-yl)methyl)-3-methylpyrido[2,3-b]pyrazin-6(5H)-one]
< 0.5 | Non-Active at 10 μM |  | Cc1cnc2cc(C3CCN(c4nnccc4C(F)(F)F)CC3)c(=O)n(Cc3ncccc3C(F)(F)F)c2n1 [compound 165, 3-Methyl-7-(1-(4-(trifluoromethyl)pyridazin-3-yl)piperidin-4-yl)-5-((3-(trifluoromethyl)pyridin-2-yl)methyl)pyrido[2,3-b]pyrazin-6(5H)-one]
< 0.5 |  | Non-Active | COc1nccc(C)c1[C@H]1CC[C@H](c2cc3ccc(C)nc3n(Cc3ncccc3C(C)(F)F)c2=O)CC1 [compound 256, 1-{[3-(1,1-Difluoroethyl)-2-pyridyl]methyl}-7-methyl-3-[(1r,4r)-4-(2-methoxy-4-methyl-3-pyridyl)cyclohexyl]-1,8-diaza-2(1H)-naphthalenone]
> 100 |  | Non-Active | Cc1cccc(F)c1N1CCC(c2cc3nccnc3n(Cc3ccc(C(F)(F)F)nc3)c2=O)CC1 [compound 14, 7-(1-(2-Fluoro-6-methylphenyl)piperidin-4-yl)-5-((6-(trifluoromethyl)pyridin-3-yl)methyl)pyrido[2,3-b]pyrazin-6(5H)-one]
5 to 100 |  | Non-Active | Cc1cccc(F)c1N1CCC(c2cc3nccnc3n([C@@H]3CCCc4ccccc43)c2=O)CC1 [53a, (R)-7-(1-(2-Fluoro-6-methylphenyl)piperidin-4-yl)-5-(1,2,3,4-tetrahydronaphthalen-1-yl)pyrido[2,3-b]pyrazin-6(5H)-one]
0.5 to 5 |  | Non-Active | Cc1cccc(F)c1N1CCC(c2cc3nccnc3n([C@@H]3CCCc4nccnc43)c2=O)CC1 [43a, (R)-7-(1-(2-Fluoro-6-methylphenyl)piperidin-4-yl)-5-(5,6,7,8-tetrahydroquinoxalin-5-yl)pyrido[2,3-b]pyrazin-6(5H)-one]
0.5 to 5 |  | Non-Active | Cc1cccc(F)c1N1CCC(n2c(=O)c3nccnc3n(Cc3ncccc3C(F)(F)F)c2=O)CC1 [compound 42, 3-(1-(2-Fluoro-6-methylphenyl)piperidin-4-yl)-1-((3-(trifluoromethyl)pyridin-2-yl)methyl)pteridine-2,4(1H,3H)-dione]
< 0.5 |  | Non-Active | O=c1c(C2CCN(c3ccccc3C(F)(F)F)CC2)cc2nccnc2n1Cc1ncccc1C(F)(F)F [compound 38, 7-(1-(2-(Trifluoromethyl)phenyl)piperidin-4-yl)-5-((3-(trifluoromethyl)pyridin-2-yl)methyl)pyrido[2,3-b]pyrazin-6(5H)-one]
0.5 to 5 |  | Non-Active | Cc1cccc(F)c1N1CCC(c2c(C)c3nccnc3n(Cc3nccnc3C(F)(F)F)c2=O)CC1 [compound 22, 7-(1-(2-Fluoro-6-methylphenyl)piperidin-4-yl)-8-methyl-5-((3-(trifluoromethyl)pyrazin-2-yl)methyl)pyrido[2,3-b]pyrazin-6(5H)-one]
> 100 |  | Non-Active | Cc1cccc(F)c1N1CCC(c2cc3nccnc3n([C@H]3CCCc4cccnc43)c2=O)CC1 [40b, (S)-7-(1-(2-Fluoro-6-methylphenyl)piperidin-4-yl)-5-(5,6,7,8-tetrahydroquinolin-8-yl)pyrido[2,3-b]pyrazin-6(5H)-one]
< 0.5 |  | Non-Active | Cc1cccc(F)c1N1CCC(c2cc3nccnc3n(Cc3nccnc3C(F)(F)F)c2=O)CC1 [compound 12, 7-(1-(2-Fluoro-6-methylphenyl)piperidin-4-yl)-5-((3-(trifluoromethyl)pyrazin-2-yl)methyl)pyrido[2,3-b]pyrazin-6(5H)-one]
0.5 to 5 |  | Non-Active | Cc1cccc(F)c1N1CCC(c2c(C)c3nccnc3n(Cc3ccccc3C(F)(F)F)c2=O)CC1 [compound 2, 7-(1-(2-Fluoro-6-methylphenyl)piperidin-4-yl)-8-methyl-5-(2-(trifluoromethyl)benzyl)pyrido[2,3-b]pyrazin-6(5H)-one]
5 to 100 |  | Non-Active | Cc1cccc(F)c1N1CCC(n2c(=O)c3nccnc3n(Cc3nccnc3C(F)(F)F)c2=O)CC1 [compound 37, 3-(1-(2-Fluoro-6-methylphenyl)piperidin-4-yl)-1-((3-(trifluoromethyl)pyrazin-2-yl)methyl)pteridine-2,4(1H,3H)-dione]
5 to 100 | Non-Active at 10 μM |  | Cc1cnc2cc([C@H]3CC[C@H](c4c(F)ccc5c4cnn5C)CC3)c(=O)n(Cc3ncccc3C(F)(F)F)c2n1 [compound 207, 7-((1r,4r)-4-(5-Fluoro-1-methyl-1H-indazol-4-yl)cyclohexyl)-3-methyl-5-((3-(trifluoromethyl)pyridin-2-yl)methyl)pyrido[2,3-b]pyrazin-6(5H)-one]
< 0.5 | Non-Active at 10 μM |  | Cc1ccc2cc([C@H]3CC[C@H](c4cnccc4C(F)(F)F)CC3)c(=O)n(Cc3ncccc3C3CC3)c2n1 [compound 248, 1-((3-Cyclopropylpyridin-2-yl)methyl)-7-methyl-3-((1r,4r)-4-(4-(trifluoromethyl)pyridin-3-yl)cyclohexyl)-1,8-naphthyridin-2(1H)-one]
< 0.5 | Non-Active at 10 μM |  | Cc1cccc(F)c1[C@H]1CC[C@H](c2cc3ncc(CC(F)(F)F)nc3n(Cc3ncccc3C(F)(F)F)c2=O)CC1 [compound 229, 7-((1r,4r)-4-(2-Fluoro-6-methylphenyl)cyclohexyl)-3-(2,2,2-trifluoroethyl)-5-((3-(trifluoromethyl)pyridin-2-yl)methyl)pyrido[2,3-b]pyrazin-6(5H)-one]
5 to 100 | Non-Active at 10 μM |  | Cc1cccc(F)c1N1CCC(c2cc3nccnc3n([C@H]3CCc4nccnc43)c2=O)CC1 [160A, (S)-5-(6,7-Dihydro-5H-cyclopenta[b]pyrazin-5-yl)-7-(1-(2-fluoro-6-methylphenyl)piperidin-4-yl)pyrido[2,3-b]pyrazin-6(5H)-one]
< 0.5 |  | Non-Active | Cc1cccc(F)c1N1CCC(c2cc3nccnc3n(Cc3ncccc3C(F)(F)F)c2=O)CC1 [compound 21, 7-(1-(2-Fluoro-6-methylphenyl)piperidin-4-yl)-5-((3-(trifluoromethyl)pyridin-2-yl)methyl)pyrido[2,3-b]pyrazin-6(5H)-one]
< 0.5 |  | Non-Active | Cc1cnc2cc([C@H]3CC[C@H](c4c(C)ccnc4F)CC3)c(=O)n(Cc3nccnc3C(F)(F)F)c2n1 [143A, 7-((1r,4r)-4-(2-Fluoro-4-methylpyridin-3-yl)cyclohexyl)-3-methyl-5-((3-(trifluoromethyl)pyrazin-2-yl)methyl)pyrido[2,3-b]pyrazin-6(5H)-one]
< 0.5 |  | Non-Active | Cc1cccc(F)c1N1CCN(c2c(C)c3nccnc3n(Cc3ncccc3C(F)(F)F)c2=O)CC1 [compound 88, 7-(4-(2-Fluoro-6-methylphenyl)piperazin-1-yl)-8-methyl-5-((3-(trifluoromethyl)pyridin-2-yl)methyl)pyrido[2,3-b]pyrazin-6(5H)-one]
